US7091211B2, “Cyclopentyl modulators of chemokine receptor activity” (Merck & Co., Inc., priority 2003, dated 2006)
pIC50: −log10 of the molar value. Where a name gives a salt, the structure may show the parent alone.

biological target: T1, CCR3 (Homo sapiens, UniProt P51677); test: Assay for determining CCR3 binding activity; details: assay disclosed in U.S. Pat. No. 6,303,593 or 6,538,002
T1 sequence (P51677 1-355): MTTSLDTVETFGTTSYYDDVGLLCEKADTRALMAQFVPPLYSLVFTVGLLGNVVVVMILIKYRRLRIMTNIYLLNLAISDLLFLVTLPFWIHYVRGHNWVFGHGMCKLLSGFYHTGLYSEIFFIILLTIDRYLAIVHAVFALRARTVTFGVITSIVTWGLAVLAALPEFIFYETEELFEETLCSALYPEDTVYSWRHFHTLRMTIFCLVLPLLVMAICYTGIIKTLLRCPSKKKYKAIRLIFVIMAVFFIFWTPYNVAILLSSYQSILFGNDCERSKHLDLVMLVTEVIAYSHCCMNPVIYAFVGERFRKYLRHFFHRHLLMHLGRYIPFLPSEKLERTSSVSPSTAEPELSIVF
Excerpt: Cell lines for expressing the receptor of interest include those naturally expressing the receptor, such as […] or THP-1, or a cell engineered to express a recombinant receptor, such as CHO, RBL-2H3, or HEK-293. For example, a CCR3 transfected AML14.3D10 cell line has been placed on restricted deposit with American Type Culture Collection as ATCC No. CRL-12079.
The CCR3 binding activity of representative compounds of the present invention can be determined via the assay disclosed in U.S. Pat. No. 6,303,593 or U.S. Pat. No. 6,538,002.

Compound | pIC50
CCc1nn(CC)c2c1CCC21CCN(C[C@H]2C[C@H](N(C)[C@@H](C(=O)O)C(C)C)C[C@@H]2c2cccc(F)c2)CC1 [Example 1, N-Methyl-N-(1-(R)-3-(S)-((1,3-diethyl-4,5-dihydrospiro[cyclopentapyrazole-6(1H),4′-piperidin-1′-yl])methyl)-4-(S)-(3-fluorophenyl)cyclopent-1-yl)-(R)-valine trihydrochloride salt] | > 5.00
CCc1c2c(nn1CC)C1(CC2)CCN(C[C@H]2C[C@H](N(C)[C@@H](C(=O)O)C(C)C)C[C@@H]2c2cccc(F)c2)CC1 [Example 2, N-Methyl-N-(1-(R)-3-(S)-((2,3-diethyl-4,5-dihydrospiro[cyclopentapyrazole-6(2H),4′-piperidin-1′-yl])methyl)-4-(S)-(3-fluorophenyl)cyclopent-1-yl)-(R)-valine trihydrochloride salt] | > 5.00
CCc1nn(C)c2c1CCC21CCN(C[C@H]2C[C@H](N(C)[C@@H](C(=O)O)C(C)C)C[C@@H]2c2cccc(F)c2)CC1 [Example 3, N-Methyl-N-(1-(R)-3-(S)-((3-ethyl-1-methyl-4,5-dihydrospiro[cyclopentapyrazole-6(1H),4′-piperidin-1′-yl])methyl)4-(S)-(3-fluorophenyl)cyclopent-1-yl)-(R)-valine trihydrochloride salt] | > 5.00
CCn1ncc2c1C1(CC2)CCN(C[C@H]2C[C@H](N(C)[C@@H](C(=O)O)C(C)C)C[C@@H]2c2cccc(F)c2)CC1 [Example 6, N-Methyl-N-(1-(R)-3-(S)-((1-ethyl-4,5-dihydrospiro[cyclopentapyrazole-6(1H),4′-piperidin-1′-yl])methyl)-4-(S)-(3-fluorophenyl)cyclopent-1-yl)-(R)-valine trihydrochloride salt] | > 5.00
CCc1onc2c1CCC21CCN(C[C@H]2C[C@H](N(C)[C@@H](C(=O)O)C(C)C)C[C@@H]2c2cccc(F)c2)CC1 [Example 12, N-Methyl-N-(1-(R)-3-(S)-((3-ethyl-4,5-dihydrospiro[6H-cyclopent[c]isoxazole-6,4′-piperidin-1′-yl])methyl)-4-(S)-(3-fluorophenyl)cyclopent-1-yl)-(R)-valine trihydrochloride salt] | > 5.00
CCn1cc2c(n1)CCC21CCN(C[C@H]2C[C@H](N(C)[C@@H](C(=O)O)C(C)C)C[C@@H]2c2cccc(F)c2)CC1 [Example 15, N-Methyl-N-(1-(R)-3-(S)-((2-ethyl-5,6 dihydrospiro[cyclopentapyrazole-4(2H),4′-piperidin-1′-yl])methyl)-4-(S)-(3-fluorophenyl)cyclopent-1-yl)-(R)-valine trihydrochloride salt] | > 5.00
CCc1nn(CC)c2c1C1(CC2)CCN(C[C@H]2C[C@H](N(C)[C@@H](C(=O)O)C(C)C)C[C@@H]2c2cccc(F)c2)CC1 [Example 16, N-Methyl-N-(1-(R)-3-(S)-((1,3-diethyl-5,6 dihydrospiro[cyclopentapyrazole-4(1H),4′-piperidin-1′-yl])methyl)-4-(S)-(3-fluorophenyl)cyclopent-1-yl)-(R)-valine trihydrochloride salt] | > 5.00
CCc1nn(CC)c2c1CCC21CCN(C[C@H]2C[C@H](N(CC)[C@@H](C(=O)O)C(C)C)C[C@@H]2c2cccc(F)c2)CC1 [Example 18, N-Ethyl-N-(1-(R)-3-(S)-((1,3-diethyl-4,5-dihydrospiro[cyclopentapyrazole-6(1H),4′-piperidin-1′-yl])methyl)-4-(S)-(3-fluorophenyl)cyclopent-1-yl)-(R)-valine trihydrochloride salt] | > 5.00
CCc1nn(CC)c2c1CCC21CCN(C[C@H]2C[C@H](N(C)[C@@H](C(=O)O)C(C)(C)C)C[C@@H]2c2cccc(F)c2)CC1 [Example 20, N-Methyl-N-(1-(R)-3-(S)-((1,3-diethyl-4,5-dihydrospiro[cyclopentapyrazole-6(1H),4′-piperidin-1′-yl])methyl)-4-(S)-(3-fluorophenyl)cyclopent-1-yl)-(R)-t-butylglycine trihydrochloride salt] | > 5.00
CCc1nn(CC)c2c1CCC21CCN(C[C@H]2C[C@H](N(C)[C@@H](C(=O)O)C(C)C)C[C@@H]2c2ccc(F)c(F)c2)CC1 [Example 25, N-Methyl-N-(1-(R)-3-(S)-((1,3-diethyl-4,5-dihydrospiro[cyclopentapyrazole-6(1H),4′-piperidin-1′-yl])methyl)-4-(S)-(3,4-difluorophenyl)cyclopent-1-yl)-(R)-valine trihydrochloride salt] | > 5.00
CCc1nn(CC)c2c1CCC21CCN(C[C@H]2C[C@H]([C@H](NC(C)(C)CC)C(=O)O)C[C@@H]2c2cccc(F)c2)CC1 [Example 45, 2-(S)-(1-(R)-3-(S)-((1,3-Diethyl-4,5-dihydrospiro[cyclopentapyrazole-6(1H),4′-piperidin-1′-yl])methyl)-4-(S)-(3-fluorophenyl)cyclopent-1-yl)-2-(1,1-dimethylprop-1-ylamino)acetic acid trihydrochloride salt] | > 5.00
CCc1nn(CC)c2c1CCC21CCN(C[C@H]2C[C@H]([C@@H](C(=O)O)N(C)C(C)(C)CC)C[C@@H]2c2cccc(F)c2)CC1 [Example 46, 2-(S)-(1-(R)-3-(S)-((1,3-Diethyl-4,5-dihydrospiro[cyclopentapyrazole-6(1H),4′-piperidin-1′-yl])methyl)-4-(S)-(3-fluorophenyl)cyclopent-1-yl)-2-((1,1-dimethylprop-1-yl)methylamino)acetic acid trihydrochloride salt] | > 5.00
